Data reported in patent US8629177B2, “Nanoencapsulated delta-9-tetrahydrocannabinol” (Aphios Corporation, priority 2010, dated 2014).
Read-outs that look alike come from different tables or passages of the source.

How the values were obtained:
Fischer rats = details: cited from earlier work
[1] = 6-week stability of nanoencapsulated and naked Δ9-THC at 4, 25 and 40° C.; format: physicochemical; details: 4° C., 25° C. and 40° C.
Procedure: (§1) Stability Studies: Shelf stability studies were conducted with Δ9-THC, Δ9-THC polymer nanospheres and formulations of the aforementioned. The following tests were performed: (i) physical appearance; and (ii) Δ9-THC content and integrity. Statistical analysis of the data sets were performed using SYSTAT®.
Stability studies were conducted on polymer nanoencapsulated Δ9-THC (THC-12-1) and naked Δ9-THC samples over a 6-week period at 4° C., 25° C. and 40° C.

[2] = Stability of Δ9-THC in collection buffer compositions and at different pH; format: physicochemical
Procedure: as §1
The composition of the buffer was determined from stability studies with Δ9-THC at different conditions. […] Stability experiments were also conducted with Δ9-THC at pH=4, 7 and 10. […] Experiments were also used to determine that a low concentration of PVA was adequate for […] and minimizing foaming in the collection buffer. The buffer was deareated to remove dissolved oxygen since Δ9-THC is very sensitive to oxygen. A 10% sucrose buffer was utilized based on prior experimental data for this and other projects to preserve particle integrity after lyophilization. Prior to lyophilization, these products were placed in a −80° C. freezer until they were frozen solid. Samples were then lyophilized for a 24 hour period. These samples were reconstituted in distilled, degasified water and were analyzed using HPLC and particle size analysis via dynamic light scattering. After lyophilization, particle sizes of THC-19 and THC-21 were reduced to 287 and 230 nm respectively, and the recovery efficiencies were 77% and 95% respectively.

CCCCCc1cc(O)c2c(c1)OC(C)(C)[C@@H]1CCC(C)=C[C@@H]21 [Δ9-THC, delta-9-tetrahydrocannabinol]
LD50 (Fischer rats; females, orally, sesame oil vehicle): 730 mg/kg
LD50 (Fischer rats; males, females, i.v.): 40 mg/kg
LD50 corrected for particulate losses and pulmonary adsorption (Fischer rats; males, females, inhalation, corrected): 42 mg/kg
LD50 (Fischer rats; males, females, inhalation): 105.7 mg/kg
LD50 (Fischer rats; males, orally, sesame oil vehicle): 1,270 mg/kg
LD50 (Fischer rats; males, orally, sesame oil, 1% polysorbate 80, saline emulsion): 800 mg/kg
degradation by temperature ([1]; 6-week period): degrades almost equally at each temperature
degradation after 6 weeks ([1]; after 6 weeks): most of the Δ9-THC is degraded
stability at pH=4, 7 and 10 ([2]; pH 4, 7, 10 compared): most stable at pH=4
stability in 10% sucrose/0.1% PVA solution with 40% ethanol ([2]; six day study, 40% ethanol): stable if 40% ethanol is introduced
stability in 10% sucrose/0.1% PVA solution ([2]; six day study, PVA-sucrose solution without sufficient ethanol (0%, 20%, 30%)): degrades in the PVA-sucrose solution
